In patent US9701729B2, “Peptide having 5 linked CTL epitopes” (TAIHO PHARMACEUTICAL CO., LTD., priority 2013, dated 2017):

Key:
[1] = tested on: CTL epitope peptide specific CTL; assay: Induction of epitope peptide specific CTLs in mouse model, detection by IFN-γ ELISPOT; type: in vivo, mice (HLA-A2.1 transgenic and HLA-A24 transgenic mice); conditions: emulsion with IFA, 100 μl weekly at base of tail, twice; inguinal lymph node cells 1 week after final administration; positive = spots significantly above negative control peptide (p<0.05)
Description: The peptides having 5 linked epitopes were dissolved in Otsuka distilled water (Otsuka Pharmaceutical Factory Inc.) at 2 mg/ml or 4 mg/ml, and the resulting solution was filled into the B Braun Injekt syringe. After the equivalent amount of Incomplete Freund's adjuvant (IFA) was filled into another syringe, these syringes were connected to each other using a GP syringe connector, and a solution of the peptides having 5 linked epitopes was thoroughly mixed with IFA to prepare an emulsion. The emulsion was weekly administered in amounts of 100 μl each in the vicinity of base of tail of mice (HLA-A2.1 transgenic and HLA-A24 transgenic mice (Taconic)), and administrations were carried out twice in total. Inguinal lymph nodes were corrected from mice 1 week after the final administration. […] The number of IFN-γ-producing cell spots was quantified using an ELISPOT analyzer (Immunospot S6, Cellular Technology Ltd.). […]

[2] = tested on: CTL epitope peptide specific IgG antibody; assay: Measurement of CTL-epitope specific IgG antibody titer in mouse serum (peptide-immobilized beads, Bio-Plex); type: in vivo, CBF1 mice (C57BL/6×Balb/c F1); conditions: emulsion with IFA, 100 μl weekly, three times; serum 1 week after final administration; compared with the IFA group
Description: Peptides were immobilized onto xMAP Multi-Analyte COOH Microspheres (Luminex Corporation; hereafter referred to as “beads”) in the manner described below. The beads were washed with MES buffer (0.1 M MES-NaOH; pH 7.0), the supernatant was removed by centrifugation. This washing process was repeated twice and the beads were then suspended in 75 μl of MES buffer. 100 μl of CTL epitope peptide solution (1 mg/ml), and 5 μl of 10 mg/ml EDC (1-ethyl-3-(3-dimethylaminopropyl)carbodiimide hydrochloride) solution was added into beads suspension then mixed well. Thereafter, the reaction was performed at 30° C. in the dark overnight. After the removal of supernatant by centrifugation on the following day, 125 μl of 1 M Tris-HCl was added, and incubation was carried out at 30° C. in the dark for 30 minutes. After the supernatant was removed again, the beads were washed twice with wash buffer (PBS(-), 0.05% Tween 20) and were suspended in Immunoblock (DS Pharma Biomedical Co., Ltd.). […]
The CTL epitope peptide-immobilized beads diluted with Immunoblock were dispensed into wells of a 96-well filter plate. […] After the three times of plate washing with a wash buffer, 100 μl of wash buffer was added into each well to suspend beads, and the mean fluorescence intensity of PE which specifically bound to relevant beads was measured using the Bio-Plex Suspension Array System (BIO-RAD). […]

Substance	number of types of CTL epitope peptide specific CTLs induced [1]	induction of CTL epitope specific IgG antibody production [2]
PEP7-RR-PEP2-RR-PEP5-RR-PEP3-RR-PEP4 (QIRPIFSNRRRASLDSDPWVRRVYDYNCHVDLRRLLQAEAPRLRRDYSARWNEI) [TPV18]	no more than two CTLs induced	
PEP2-RR-PEP3-RR-PEP4-RR-PEP5-RR-PEP7 (ASLDSDPWVRRLLQAEAPRLRRDYSARWNEIRRVYDYNCHVDLRRQIRPIFSNR) [TPV17]		multiple CTL epitope specific IgG antibodies production was not induced
